Data taken from EP4806900A2, “RAS INHIBITORS” (Revolution Medicines, Inc., priority 2019, dated 2021).
pIC50: −log10 of the molar value. Values joined by “and” are separate entries in the source; they are usually repeats but may differ in a detail not shown here. Equal entries are not always repeated.

System: NCI-H358 (K-Ras G12C)
Test: CellTiter-Glo cell viability assay, NCI-H358
Format: cell-based, human
Conditions: Table 5; read-out: H358 Cell Viability assay data (K-Ras G12C, IC50)
Protocol: Note - The following protocol describes a procedure for monitoring cell viability of K-Ras mutant cancer cell lines in response to a compound of the invention. Other RAS isoforms may be employed, though the number of cells to be seeded will vary based on cell line used.
Test compounds (132.5 nL) were directly dispensed into the assay plates containing cells. […] On day 5, assay plates and their contents were equilibrated to room temperature for approximately 30 minutes. […] Luminescence was measured using the PerkinElmer Enspire. Data were normalized by the following: (Sample signal/Avg. DMSO)*100. The data were fit using a four-parameter logistic fit.

SMILES | pIC50
CCn1c(-c2ccccc2CN(C)C)c2c3cc(ccc31)-c1cc(O)cc(c1)C[C@H](NC(=O)[C@H](C(C)C)N(C)C(=O)c1ccc(NC(=O)/C=C/CN(C)C)cn1)C(=O)N1CCC[C@H](N1)C(=O)OCC(C)(C)C2 [Compound A46] | < 6.00
CCn1c(-c2ccccc2CN(C)C)c2c3cc(ccc31)-c1cc(O)cc(c1)C[C@H](NC(=O)[C@H](C(C)C)N(C)C(=O)[C@H]1CCN(C(=O)/C=C/CN(C)C)C1)C(=O)N1CCC[C@H](N1)C(=O)OCC(C)(C)C2 [Compound A47] | 7.00 to 8.00
CCn1c(-c2ccccc2CN(C)C)c2c3cc(ccc31)-c1cc(O)cc(c1)C[C@H](NC(=O)[C@H](C(C)C)N(C)C(=O)c1ccc(NC(=O)/C=C/CN(C)C)cc1)C(=O)N1CCC[C@H](N1)C(=O)OCC(C)(C)C2 [Compound A49] | < 6.00
C=CC(=O)N1CC[C@H](C(=O)N(C)[C@H](C(=O)N[C@H]2Cc3cc(O)cc(c3)-c3ccc4c(c3)c(c(-c3ccc5c(c3)OCCN5C)n4CC)CC(C)(C)COC(=O)[C@@H]3CCCN(N3)C2=O)C(C)C)C1 [Compound A50] | 6.00 to 7.00
C=CC(=O)N1CC[C@H](C(=O)N(C)[C@H](C(=O)N[C@H]2Cc3cc(O)cc(c3)-c3ccc4c(c3)c(c(-c3ccc(CN(C)C)cc3COC)n4CC)CC(C)(C)COC(=O)[C@@H]3CCCN(N3)C2=O)C(C)C)C1 [Compound A51] | 7.00 to 8.00
C=CC(=O)N1C[C@H](C)[C@H](C(=O)N(C)[C@H](C(=O)N[C@H]2Cc3cc(O)cc(c3)-c3ccc4c(c3)c(c(-c3ccccc3CN(C)C)n4CC)CC(C)(C)COC(=O)[C@@H]3CCCN(N3)C2=O)C(C)C)C1 [Compound A52] | 7.00 to 8.00
C=CC(=O)N1CC[C@H](C(=O)N(C)[C@H](C(=O)N[C@H]2Cc3cc(O)cc(c3)-c3cc(F)c4c(c3)c(c(-c3ccccc3CCOC)n4CC)CC(C)(C)COC(=O)[C@@H]3CCCN(N3)C2=O)C(C)C)C1 [Compound A53] | 6.00 to 7.00
CCn1c(-c2cccnc2COC)c2c3cc(ccc31)-c1cc(O)cc(c1)C[C@H](NC(=O)[C@H](C(C)C)N(C)C(=O)[C@H]1CCN(C(=O)/C=C/CN(C)C)C1)C(=O)N1CCC[C@H](N1)C(=O)OCC(C)(C)C2 [Compound A54, (2S)-2-{1-[(3S)-1-[(2E)-4-(dimethylamino)but-2-enoyl]pyrrolidin-3-yl]-N-methylformamido}-N-[(8S,14S)-22-ethyl-4-hydroxy-21-[2-(methoxymethyl)pyridin-3-yl]-18,18-dimethyl-9,15-dioxo-16-oxa-10,22,28-triazapentacyclo[18.5.2.1^2,^6.1^10,^14.0^23,^27]nonacosa-1(26),2,4,6(29),20,23(27),24-heptaen-8-yl]-3-methylbutanamide] | 7.00 to 8.00
C=CC(=O)N1CC[C@H](C(=O)N(C)[C@H](C(=O)N[C@H]2Cc3cc(O)cc(c3)-c3ccc4c(c3)c(c(-c3cccnc3COC)n4CC)CC(C)(C)COC(=O)[C@@H]3CCCN(N3)C2=O)C2CCCC2)C1 [Compound A55] | > 8.00
C=CC(=O)N1C[C@H](C)[C@H](C(=O)N(C)[C@H](C(=O)N[C@H]2Cc3cc(O)cc(c3)-c3ccc4c(c3)c(c(-c3cccnc3COC)n4CC)CC(C)(C)COC(=O)[C@@H]3CCCN(N3)C2=O)C(C)C)C1 [Compound A56] | > 8.00
C=CC(=O)N1C[C@H](C)[C@H](C(=O)N(C)[C@H](C(=O)N[C@H]2Cc3cc(O)cc(c3)-c3ccc4c(c3)c(c(-c3cccnc3COC)n4CC)CC(C)(C)COC(=O)[C@@H]3CCCN(N3)C2=O)C2CCCC2)C1 [Compound A57] | > 8.00
C=CC(=O)N1CC[C@H](C(=O)N(C)[C@H](C(=O)N[C@H]2Cc3cc(O)cc(c3)-c3ccc4c(c3)c(c(C3=C(COC)COCC3)n4CC)CC(C)(C)COC(=O)[C@@H]3CCCN(N3)C2=O)C(C)C)C1 [Compound A58] | 7.00 to 8.00
C=CC(=O)N1CC[C@H](C(=O)N(C)[C@H](C(=O)N[C@H]2Cc3cc(OC(C)=O)cc(c3)-c3ccc4c(c3)c(c(-c3ccccc3CN(C)C)n4CC)CC(C)(C)COC(=O)[C@@H]3CCCN(N3)C2=O)C(C)C)C1 [Compound A59] | 6.00 to 7.00
C=CC(=O)N1CC[C@H](C(=O)N(C)[C@H](C(=O)N[C@H]2Cc3cc(O)cc(c3)-c3ccc4c(c3)c(c(-c3cccnc3N3CC(OC)C3)n4CC)CC(C)(C)COC(=O)[C@@H]3CCCN(N3)C2=O)C(C)C)C1 [Compound A60] | 7.00 to 8.00
C=CC(=O)N1CC[C@H](C(=O)N(C)[C@H](C(=O)N[C@H]2Cc3cc(O)cc(c3)-c3ccc4c(c3)c(c(-c3cncnc3)n4CC)CC(C)(C)COC(=O)[C@@H]3CCCN(N3)C2=O)C(C)C)C1 [Compound A61] | 7.00 to 8.00
C=CC(=O)N1CC[C@H](C(=O)N(C)[C@H](C(=O)N[C@H]2Cc3cc(O)cc(c3)-c3ccc4c(c3)c(c(-c3cncc(C#N)c3)n4CC)CC(C)(C)COC(=O)[C@@H]3CCCN(N3)C2=O)C(C)C)C1 [Compound A62] | 7.00 to 8.00
C=CC(=O)N1CC[C@H](C(=O)N(C)[C@H](C(=O)N[C@H]2Cc3cc(O)cc(c3)-c3ccc4c(c3)c(c(C3=C(COC)CCCC3)n4CC)CC(C)(C)COC(=O)[C@@H]3CCCN(N3)C2=O)C(C)C)C1 [Compound A64] | 7.00 to 8.00
C=CC(=O)N1CC[C@H](C(=O)N(C)[C@H](C(=O)N[C@H]2Cc3cc(O)cc(c3)-c3ccc4c(c3)c(c([C@@H]3CC=CN=C3COC)n4CC)CC(C)(C)COC(=O)[C@@H]3CCCN(N3)C2=O)C(C)C)C1 [Compound A65] | 6.00 to 7.00
C=CC(=O)N1CC[C@H](C(=O)N(C)[C@H](C(=O)N[C@H]2Cc3cc(O)cc(c3)-c3ccc4c(c3)c(c(-c3cccnc3COC)n4C)CC(C)(C)COC(=O)[C@@H]3CCCN(N3)C2=O)C(C)C)C1 [Compound A66] | 7.00 to 8.00
CCn1c(-c2cccnc2COC)c2c3cc(ccc31)-c1cc(O)cc(c1)C[C@H](NC(=O)[C@H](C(C)C)N(C)C(=O)c1ccc(NC(=O)/C=C/CN(C)C)cn1)C(=O)N1CCC[C@H](N1)C(=O)OCC(C)(C)C2 [Compound A67, (2E)-4-(dimethylamino)-N-(6-{[(1S)-1-{[(8S,14S)-22-ethyl-4-hydroxy-21-[2-(methoxymethyl)pyridin-3-yl]-18,18-dimethyl-9,15-dioxo-16-oxa-10,22,28-triazapentacyclo[18.5.2.1^2,^6.1^10,^14.0^23,^27]nonacosa-1(26),2,4,6(29),20,23(27),24-heptaen-8-yl]carbamoyl}-2-methylpropyl](methyl)carbamoyl}pyridin-3-yl)but-2-enamide] | 6.00 to 7.00
C=CC(=O)N1CC[C@@]2(CCN([C@H](C(=O)N[C@H]3Cc4cc(O)cc(c4)-c4ccc5c(c4)c(c(-c4ccccc4CCOC)n5CC)CC(C)(C)COC(=O)[C@@H]4CCCN(N4)C3=O)C(C)C)C2=O)C1 [Compound A68] | 6.00 to 7.00
C=CS(=O)(=O)N1CC[C@H](C(=O)N(C)[C@H](C(=O)N[C@H]2Cc3cc(O)cc(c3)-c3ccc4c(c3)c(c(-c3cccnc3COC)n4CC)CC(C)(C)COC(=O)[C@@H]3CCCN(N3)C2=O)C(C)C)C1 [Compound A69] | 7.00 to 8.00
C=CC(=O)N1CC(C(=O)N(C)[C@H](C(=O)N[C@H]2Cc3cc(O)cc(c3)-c3ccc4c(c3)c(c(-c3cccnc3COC)n4CC)CC(C)(C)COC(=O)[C@@H]3CCCN(N3)C2=O)C(C)C)C1 [Compound A70] | 7.00 to 8.00
CCn1c(-c2cccnc2COC)c2c3cc(ccc31)-c1cc(O)cc(c1)C[C@H](NC(=O)[C@H](C(C)C)N(C)C(=O)C1CN(C(=O)/C=C/CN(C)C)C1)C(=O)N1CCC[C@H](N1)C(=O)OCC(C)(C)C2 [Compound A71, (2S)-2-(1-{1-[(2E)-4-(dimethylamino)but-2-enoyl]azetidin-3-yl}-N-methylformamido)-N-[(8S,14S)-22-ethyl-4-hydroxy-21-[2-(methoxymethyl)pyridin-3-yl]-18,18-dimethyl-9,15-dioxo-16-oxa-10,22,28-triazapentacyclo[18.5.2.1^2,6.1^10,^14.0^23,^27]nonacosa-1(26),2,4,6(29),20,23(27),24-heptaen-8-yl]-3-methylbutanamide] | 6.00 to 7.00
CCn1c(-c2cccnc2COC)c2c3cc(ccc31)-c1cc(O)cc(c1)C[C@H](NC(=O)[C@H](C(C)C)N(C)C(=O)[C@H]1CCN(C(=O)/C=C/CN3CCN(C)CC3)C1)C(=O)N1CCC[C@H](N1)C(=O)OCC(C)(C)C2 [Compound A72] | < 6.00
C=CC(=O)N1CC[C@H](C(=O)N(C)[C@H](C(=O)N[C@H]2Cc3cc(O)cc(c3)-c3ccc4c(c3)c(c(-c3cncc(CN(C)C)c3)n4CC)CC(C)(C)COC(=O)[C@@H]3CCCN(N3)C2=O)C(C)C)C1 [Compound A73] | 7.00 to 8.00
C=CC(=O)N1CC[C@H](C(=O)N(C)[C@H](C(=O)N[C@H]2Cc3cc(O)cc(c3)-c3ccc4c(c3)c(c(-c3cccnc3)n4C(C)(C)C#N)CC(C)(C)COC(=O)[C@@H]3CCCN(N3)C2=O)C(C)C)C1 [Compound A74] | 7.00 to 8.00
C=CC(=O)N1CC[C@H](C(=O)N(C)[C@H](C(=O)N[C@H]2Cc3cc(O)cc(c3)-c3ccc4c(c3)c(c(-c3cccnc3[C@H](C)OC)n4CC)CC(C)(C)COC(=O)[C@@H]3CCCN(N3)C2=O)C(C)C)C1 [Compound A75, (2S)-N-[(8S,14S,20M)-22-ethyl-4-hydroxy-21-{2-[(1S)-1-methoxyethyl]pyridin-3-yl}-18,18-dimethyl-9,15-dioxo-16-oxa-10,22,28-triazapentacyclo[18.5.2.1^2,^6.1^10,^14.0^23,^27]nonacosa-1(26),2,4,6(29),20,23(27),24-heptaen-8-yl]-3-methyl-2-{N-methyl-1-[(3S)-1-(prop-2-enoyl)pyrrolidin-3-yl]formamido}butanamide] | > 8.00 and 7.00 to 8.00
C=CC(=O)N1CC[C@H](C(=O)N(C)[C@H](C(=O)N[C@H]2Cc3cc(O)cc(c3)-c3ccc4c(c3)c(c(-c3cnccc3[C@H](C)OC)n4CC)CC(C)(C)COC(=O)[C@@H]3CCCN(N3)C2=O)C(C)C)C1 [Compound A76] | > 8.00
C=CC(=O)N1CC[C@H](C(=O)N(C)[C@H](C(=O)N[C@H]2Cc3cc(O)cc(c3)-c3ccc4c(c3)c(c(-c3cnccc3C)n4CC)CC(C)(C)COC(=O)[C@@H]3CCCN(N3)C2=O)C(C)C)C1 [Compound A77] | 7.00 to 8.00
